# Columns and labels:
# [1] = system: PARP (poly-ADP ribose polymerase) cleavage in HeLa cells; test: PARP cleavage by Western blot and cell morphology after illumination; type: cell-based; conditions: 2 µM, 2h, 17 mW.cm^-2, 452 nm filter
# Procedure: HeLa cells were plated in 6-well plates (4.10^5 cells/well) and incubated with 2 µM TP2Py for 2h at 37°C. After varying illumination times (up to 90min) at 17 mW.cm^-2 (Mercury lamp (130W; 380-600nm) + excitation filter centered at 452 nm (± 45 nm)), cells were collected by scraping, washed once in ice-cold PBS, treated with lysis buffer (1% Nonidet P-40, 20 mM Tris pH 8.0, 137 mM NaCl, 10% glycerol (v/v)) supplemented with 1 mM phenyl-methylsulfonyl fluoride, 1 mM sodium orthovanadate and anti-protease cocktail (Complete, Boehringer Mannheim, Germany) for 20 min on ice and further centrifuged at 10000g for 10 min. Protein concentrations were determined using the bicinchoninic acid method (micro BCA, Pierce, USA). 40µg of detergent soluble proteins were separated by SDS-PAGE under reducing conditions followed by Western blotting. Membranes were first incubated overnight at 4°C with the rabbit primary polyclonal antibody anti-PARP (Cell Signaling Technology). Membranes were then probed with horseradish peroxidase-labelled anti-rabbit IgG (dilution, 1/2000) (Dakocytomation). Detection was based on a chemiluminescence detection system (GE Healthcare, Orsay, France). […]
# The cleavage of PARP, a hallmark of apoptosis, was assessed by Western blot using an anti-PARP antibody that recognizes both the entire and cleaved PARP (Fig. 11).
# MCF-7 cells = test: FITC-conjugated Annexin V staining, flow cytometric analysis (apoptosis); type: cell-based; conditions: for HMFI population: 30 min illumination; for HMFI population (Annexin V positive, TP2Py positive): 2µM, 2 hours
# Procedure: MCF-7 cells were plated in 12-well plates (2.10^5 cells/well) and incubated with 2µM of TP2Py for 2h at 37°C. Under specific conditions (see Fig. 12), cells were further incubated with NAC (1mM) for 30 min, Bapta-AM (20µM) for 3h, or CsA (10µM) for 1h at 37°C. After a time illumination of either 30 or 60 min at […] (Mercury lamp (130W; 380-600nm) + excitation filter centered at 452nm (± 45nm)), cells were gently scraped and pooled with medium floating cells. Cells were individualized in PBS-EDTA (10mM) and stained as described by the manufacturer (Roche, Germany). Briefly, the cell pellet was re-suspended in 500µl Annexin V-HEPES solution (10 mM HEPES-NaOH, pH 7.4, 140mM NaCl, 5mM CaCl2) and incubated on ice for 30 min in the dark. Cells were then washed in ice-cold HEPES buffer before analysis. Fluorescence signals of fluorescently labelled (FITC) Annexin V and TP2Py were measured by a FACSCalibur flow cytometer (Becton-Dickinson, Sunnyvale, CA, USA) using FL1 and FL2 detectors, respectively.
# Different experiments are summarized below: • MCF-7 cells treated with 2µM TP2Py for 2 hours and then stained with FITC-conjugated Annexin V immediately (Fig.12A) without light exposure; • MCF-7 cells treated with 2µM TP2Py for 2 hours and then stained with FITC-conjugated Annexin V after a time illumination (Exc, 452 nm) of 30 min (Fig.12B); • MCF-7 cells treated with 2µM TP2Py for 2 hours and then stained with FITC-conjugated Annexin V after a time illumination (Exc, 452 nm) of 60 min (Fig.12C); • control MCF-7 cells treated with DMSO (1%) only and illuminated for 30 min before Annexin V staining (Fig.12D); • control MCF-7 cells treated with 1µg/mL actinomycin D (ActD), no illumination before Annexin V staining (Fig.12E); • control MCF-7 cells treated with camptothecin (CPT, 10µM)) (Fig.12F) for 2.5 hours, no illumination before Annexin V staining; • MCF-7 cells treated during 2 hours with 2µM TP2Py and 10µM cyclosporine A (CsA) and illuminated for 30 min before Annexin V staining (Fig.12G); • MCF-7 cells treated during 2 hours with 2µM TP2Py and 1 mM N-Acetyl cysteine (NAC) and illuminated for 30 min before Annexin V staining (Fig.12H); and • MCF-7 cells treated during 2 hours with 2µM TP2Py and 20µM Bapta-am (Fig.12I) and illuminated for 30 min before Annexin V staining.
# The horizontal (FL1-H) and vertical (FL2-H) axes correspond to the fluorescence signal of Annexin V and TP2Py, respectively. The percentage of population with a high mean fluorescence signal is indicated in the corresponding quadrant (top right or bottom right in the presence or absence of TP2Py, respectively).
smiles,measurement,setting,value
C[n+]1ccc(/C=C/c2ccc(N(c3ccccc3)c3ccc(/C=C/c4cc[n+](C)cc4)cc3)cc2)cc1 [TP2Py],illumination time after which PARP cleavage was detected,[1],60 min
same,HMFI population,MCF-7 cells; 2µM TP2Py with 10µM cyclosporine A (CsA),13%
same,HMFI population,MCF-7 cells; 2µM TP2Py with 20µM Bapta-am,19%
same,HMFI population,MCF-7 cells; 2µM TP2Py with 1 mM N-Acetyl cysteine (NAC),25%
same,"HMFI population (Annexin V positive, TP2Py positive)","MCF-7 cells; 30 min illumination (452 nm, 40 MW.cm^-2)",29%
same,"HMFI population (Annexin V positive, TP2Py positive)",MCF-7 cells; 60 min illumination,38%
same,"HMFI population (Annexin V positive, TP2Py positive)",MCF-7 cells; without light illumination,4.3%

# Source: EP2711366A1, “Cationic triphenylamine derivatives activable by visible and Infra Red light for inducing and imaging apoptosis in cancer cells” (Institut Curie, priority 2012, dated 2014)
